Assay results reported in patent US4103085A, “7-(Syn-α-alkoxy-iminofurylacetamido-3-(2-carboxyalkyl-2,3-dihy dro-s-triazolo[4,3-b]pyridazin-3-on-6-ylthiomethyl)-3-cephem-4-carboxylic acids” (Bristol-Myers Company, priority 1977, dated 1978).
Converted amounts (≈) assume the structure as drawn. Structures can show the parent of a compound that is named as a salt.

Legend:
Type in all cases: cell-based
Proteus (6) = assay: In vitro activity, Mueller-Hinton agar, serial dilution method (Table 1); conditions: read-out: Geometric Mean of MIC
S. marcescens [1] = assay: MICs against 18 strains of S. marcescens (Table 3); conditions: Serratia marcescens, read-out: Geometric Means of MIC's
Text: Geometric Means of MIC's Against 18 Strains

S. viridans (5) = assay: In vitro activity, Mueller-Hinton agar, serial dilution method (Table 1); conditions: Streptococcus viridans, read-out: Geometric Mean of MIC
N. meningitidis (5) = assay: as above; conditions: Neisseria meningitidis, read-out: Geometric Mean of MIC
Kl. pneumoniae (4) = assay: as above; conditions: Klebsiella pneumoniae, read-out: Geometric Mean of MIC
Text: (§1) In vitro Activity Using Mueller-Hinton Agar
(§2) By the Serial Dilution Method

[2] = tested on: Shig. (3), Serr. (1) (1), Sal. (2); assay: as above; conditions: read-out: Geometric Mean of MIC
Text: as §1, §2

S. aureus (3 strains) = assay: as above; conditions: Staphylococcus aureus, read-out: Geometric Mean of MIC
N. gonorrhoeae (5) = assay: as above; conditions: Neisseria gonorrhoeae, read-out: Geometric Mean of MIC
H. influenzae (7) = assay: as above; conditions: Haemophilus influenzae, read-out: Geometric Mean of MIC
E. coli = assay: MICs in Mueller-Hinton agar (Table 2); conditions: Escherichia coli, 6 strains, read-out: Geometric Means of MIC's
Text: (§3) Geometric Means of MIC's Against 3 Strains
(§4) of S. aureus and 27 Strains of Gram-negative Bacteria
(§5) (mcg./ml., Mueller-Hinton Agar)

P. aeruginosa = assay: MICs in Mueller-Hinton agar (Table 2); conditions: Pseudomonas aeruginosa, 2 strains, read-out: Geometric Means of MIC's
Text: as §3, §4, §5

Indole (-) Proteus = assay: MICs in Mueller-Hinton agar (Table 2); conditions: 2 strains, read-out: Geometric Means of MIC's
Text: as §3, §4, §5

E. coli, Cephalosporin-R = assay: MICs in Mueller-Hinton agar (Table 2); conditions: Escherichia coli, 1 strain, read-out: Geometric Means of MIC's
Text: as §3, §4, §5

S. aureus = assay: MICs in Mueller-Hinton agar (Table 2); conditions: Staphylococcus aureus, 1 strain, read-out: Geometric Means of MIC's
Text: as §3, §4, §5

S. marcescens [3] = assay: MICs in Mueller-Hinton agar (Table 2); conditions: Serratia marcescens, 1 strain, read-out: Geometric Means of MIC's
Text: as §3, §4, §5

Shigella, Salmonella = assay: MICs in Mueller-Hinton agar (Table 2); conditions: 5 strains, read-out: Geometric Means of MIC's
Text: as §3, §4, §5

E. cloacae = assay: MICs in Mueller-Hinton agar (Table 2); conditions: Enterobacter cloacae, 1 strain, read-out: Geometric Means of MIC's
Text: as §3, §4, §5

S. aureus, Penicillin-R = assay: MICs in Mueller-Hinton agar (Table 2); conditions: Staphylococcus aureus, 2 strains, read-out: Geometric Means of MIC's
Text: as §3, §4, §5

K. pneumoniae = assay: MICs in Mueller-Hinton agar (Table 2); conditions: Klebsiella pneumoniae, 4 strains, read-out: Geometric Means of MIC's
Text: as §3, §4, §5

[4] = tested on: Indole(+) Proteus, Cephalosporin-R; assay: MICs in Mueller-Hinton agar (Table 2); conditions: 2 strains, read-out: Geometric Means of MIC's
Text: as §3, §4, §5

Indole(+) Proteus = assay: MICs in Mueller-Hinton agar (Table 2); conditions: 3 strains, read-out: Geometric Means of MIC's
Text: as §3, §4, §5

E. coli (7) = assay: In vitro activity, Mueller-Hinton agar, serial dilution method (Table 1); conditions: Escherichia coli, read-out: Geometric Mean of MIC
D. pneumoniae (5) = assay: as above; conditions: Streptococcus pneumoniae, read-out: Geometric Mean of MIC
[5] = tested on: B. anthracis (1) S. pyrogenes (5); assay: microbe, parasite or virus in culture; conditions: Bacillus anthracis, read-out: Geometric Mean of MIC

## CO/N=C(\C(=O)N[C@@H]1C(=O)N2C(C(=O)O)=C(CSc3ccc4nn(CC(=O)O)c(=O)n4n3)CS[C@H]12)c1ccco1 [BB-S511, 7-[(2Z)-2-Methoxyimino(fur-2-yl)acetamido]-3-(2-carboxymethyl-2,3-dihydro-s-triazolo[4,3-b]pyridazin-3-on-6-ylthiomethyl)-3-cephem-4-carboxylic Acid Disodium Salt]
Proteus (6)
  MIC: 0.021 µg/mL
S. marcescens [1]
  MIC: 5.4 µg/mL
S. viridans (5)
  MIC: 0.15 µg/mL
N. meningitidis (5)
  MIC: 2.37 µg/mL
Kl. pneumoniae (4)
  MIC: 0.47 µg/mL
[2]
  MIC: 1.11 µg/mL
S. aureus (3 strains)
  MIC: 1.97 µg/mL
N. gonorrhoeae (5)
  MIC: 1.36 µg/mL
H. influenzae (7)
  MIC: 0.64 µg/mL
E. coli
  MIC: 0.2 µg/mL
P. aeruginosa
  MIC: > 100 µg/mL
Indole (-) Proteus
  MIC: 0.1 µg/mL
E. coli, Cephalosporin-R
  MIC: 6.3 µg/mL
S. aureus
  MIC: 1.6 µg/mL
S. marcescens [3]
  MIC: 25 µg/mL
Shigella, Salmonella
  MIC: 0.3 µg/mL
E. cloacae
  MIC: 3.1 µg/mL
S. aureus, Penicillin-R
  MIC: 0.6 µg/mL
K. pneumoniae
  MIC: 0.7 µg/mL
[4]
  MIC: 6.3 µg/mL
Indole(+) Proteus
  MIC: 0.05 µg/mL
E. coli (7)
  MIC: 0.58 µg/mL
D. pneumoniae (5)
  MIC: 0.037 µg/mL
[5]
  MIC: 0.032 µg/mL

## CO/N=C(\C(=O)N[C@@H]1C(=O)N2C(C(=O)O)=C(CSc3ccc4nn(CCC(=O)O)c(=O)n4n3)CS[C@H]12)c1ccco1 [BB-S526, 7-[(2Z)-2-Methoxyimino(fur-2-yl)acetamido]-3-[2-(2-carboxyethyl)-2,3-dihydro-s-triazolo[4,3-b]pyridazin-3-on-6-ylthiomethyl]-3-cephem-4-carboxylic Acid Sodium Salt]
Proteus (6)
  MIC: 0.061 µg/mL
S. viridans (5)
  MIC: 0.4 µg/mL
N. meningitidis (5)
  MIC: 3.6 µg/mL
Kl. pneumoniae (4)
  MIC: 0.93 µg/mL
[2]
  MIC: 2.41 µg/mL
S. aureus (3 strains)
  MIC: 1.6 µg/mL
N. gonorrhoeae (5)
  MIC: 1.6 µg/mL
H. influenzae (7)
  MIC: 0.71 µg/mL
E. coli (7)
  MIC: 0.78 µg/mL
D. pneumoniae (5)
  MIC: 0.056 µg/mL
[5]
  MIC: 0.032 µg/mL

## NCc1ccccc1CC(=O)N[C@@H]1C(=O)N2C(C(=O)O)=C(CSc3nnnn3CC(=O)O)CS[C@H]12 [BL-S786, 7-[α-(2-aminomethylphenyl)acetamido]-3-[(1-carboxymethyltetrazol-5-lthio)methyl]-3-cephem-4-carboxylic acid, reference compound]
S. marcescens [1]
  MIC: 85.9 µg/mL (≈ 165 µM)
E. coli
  MIC: 0.2 µg/mL (≈ 0.385 µM)
P. aeruginosa
  MIC: > 100 µg/mL
Indole (-) Proteus
  MIC: 0.2 µg/mL (≈ 0.385 µM)
E. coli, Cephalosporin-R
  MIC: 12.5 µg/mL (≈ 24.1 µM)
S. marcescens [3]
  MIC: > 100 µg/mL
Shigella, Salmonella
  MIC: 0.5 µg/mL (≈ 0.962 µM)
E. cloacae
  MIC: 1.6 µg/mL (≈ 3.08 µM)
S. aureus, Penicillin-R
  MIC: 1.6 µg/mL (≈ 3.08 µM)
K. pneumoniae
  MIC: 0.3 µg/mL (≈ 0.577 µM)
[4]
  MIC: 50.1 µg/mL (≈ 96.4 µM)
Indole(+) Proteus
  MIC: 0.3 µg/mL (≈ 0.577 µM)

## CO/N=C(\C(=O)N[C@@H]1C(=O)N2C(C(=O)O)=C(COC(N)=O)CS[C@H]12)c1ccco1 [Cefuroxime, sodium 6R,7R-3-carbamoyloxymethyl-7-(2Z)-2-methoxyimino(fur-2-yl)acetamidoceph-3em-4-carboxylate, reference compound]
Proteus (6)
  MIC: 0.88 µg/mL
S. viridans (5)
  MIC: 0.1 µg/mL
N. meningitidis (5)
  MIC: 1.6 µg/mL
Kl. pneumoniae (4)
  MIC: 3.1 µg/mL
[2]
  MIC: 4.06 µg/mL
S. aureus (3 strains)
  MIC: 1.24 µg/mL
N. gonorrhoeae (5)
  MIC: 0.4 µg/mL
H. influenzae (7)
  MIC: 1.16 µg/mL
E. coli (7)
  MIC: 1.28 µg/mL
D. pneumoniae (5)
  MIC: 0.0125 µg/mL
[5]
  MIC: 0.025 µg/mL
